Experiment [1] concerns the target T1, dopamine autoreceptor (D2) (Rattus norvegicus, UniProt P61169).
T1 construct: homogenized rat striatal brain tissue; from tissue; host or cells: rat striatum, homogenate
Put plainly: 3H-quinpirole (D2 Quin.) binding, homogenized rat striatal brain tissue, affinity for dopamine autoreceptor. The method, then:
Affinity for the dopamine autoreceptor was established by a modification of the standard experimental test procedure of Seemen and Schaus, European Journal of Pharmacology 203, 105-109, 1991, wherein homogenized rat striatal brain tissue is incubated with ^3 H-quinpirole (Quin.) and various concentrations of test compound, filtered and washed and counted in a Betaplate scintillation counter.

Experiment [2] deals with T2, dopamine D-2 receptor (Rattus norvegicus, UniProt P61169).
T2 construct: from tissue; host or cells: limbic brain tissue, homogenate
T2 sequence (P61169 whole entry): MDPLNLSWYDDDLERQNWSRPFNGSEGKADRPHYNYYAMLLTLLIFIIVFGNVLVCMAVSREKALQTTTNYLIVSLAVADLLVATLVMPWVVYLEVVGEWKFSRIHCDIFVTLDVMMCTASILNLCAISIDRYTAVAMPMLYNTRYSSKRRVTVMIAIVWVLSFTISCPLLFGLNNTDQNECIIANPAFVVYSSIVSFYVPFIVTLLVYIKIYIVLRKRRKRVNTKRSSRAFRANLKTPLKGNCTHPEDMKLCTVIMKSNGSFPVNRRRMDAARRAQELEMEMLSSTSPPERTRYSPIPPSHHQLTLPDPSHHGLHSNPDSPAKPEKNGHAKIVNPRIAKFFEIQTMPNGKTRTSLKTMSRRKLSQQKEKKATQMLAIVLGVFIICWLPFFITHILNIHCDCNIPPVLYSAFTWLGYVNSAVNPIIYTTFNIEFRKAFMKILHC
The experiment can be described thus: 3H-spiroperidol (D2 Spiper.) binding, homogenized limbic brain tissue. The method, then:
High affinity for the dopamine D-2 receptor was established by the standard experimental test procedure of Fields, et al., Brain Res., 136, 578 (1977) and Yamamura et al., eds., Neurotransmitter Receptor Binding, Raven Press, N.Y. (1978) wherein homogenized limbic brain tissue is incubated with ^3 H-spiroperidol (Spiper.) and various concentrations of test compound, filtered and washed and shaken with Hydrofluor scintillation cocktail (National Diagnostics) and counted in a Packard 460 CD scintillation counter.

Experiment [3] relates to dopamine D2 receptor. Put plainly: Intrinsic activity at the dopamine D2 receptor, ratio LowAg/HighAg. In kind it is binding. To be noted: D2 Spiper IC50 / D2 Quin. IC50 (LowAg/HighAg). From the text: Efforts to induce antipsychotic activity with dopamine autoreceptor agonists have been successful (Dorsini et al., Adv. Biochem. […] et al., Science, 200, 567-568, 1975; and […] et al., Psychiatry, 398-402, 1986). […] Pharm., 42, 432-438, (1993)]. Intrinsic activity is predicted using the ratio of the "low-affinity agonist" (LowAg) state of the receptor and the "high-affinity agonist" ([…]) state of the receptor, […]. These ratios correlate with the agonist, partial agonist, and antagonist activities of a given compound, which activities characterize a compounds ability to elicit an antipsychotic effect. […] Activation of the dopamine autoreceptors results in reduced neuronal firing a well as inhibition of dopamine synthesis and release and therefore provide a means of controlling hyperactivity of the dopaminergic systems. The compounds of this invention were also found to have high intrinsic activity and therefore they can behave as the natural neurotransmitter i.e. as full agonists. […] Affinity for the dopamine autoreceptor was established by a modification of the standard experimental test procedure of Seemen and Schaus, European Journal of Pharmacology 203, 105-109, 1991, wherein homogenized rat striatal brain tissue is incubated with ^3 H-quinpirole (Quin.) and various concentrations of test compound, filtered and washed and counted in a Betaplate scintillation counter. […]

By IC50 is commonly meant the concentration needed to halve the response being measured.

The structures appear in SMILES notation.

T1 sequence (P61169 whole entry): as above

In turn, `c1cc(OCCNCc2ccsc2)c2cn[nH]c2c1` [Example 3, [2-(1H-Indazol-4-yloxy)-ethyl]-thiophen-3-ylmethyl-amine] had an IC50 in experiment [1] of 2.78 nM.

`c1csc(CNCCOc2cccc3[nH]ncc23)c1` [Example 2, [2-(1H-Indazol-4-yloxy)-ethyl]-thiophen-2-ylmethyl-amine]: the half-maximal inhibitory concentration (IC50) was 4.3 nM in experiment [1] and 1090 nM in experiment [2]. In experiment [3], the Ratio is recorded as 254.

`c1ccc(CNCCOc2cccc3[nH]ncc23)cc1` [Example 1, Benzyl-[2-(1H-indazo-4-yloxy)-ethyl]-amine]: the IC50 in experiment [1] turned out to be 2.23 nM; in experiment [2], 333 nM. Further, in experiment [3], the Ratio amounted to 151.
